Source: patent US11882828B2, “Mosquito vector control compositions, methods and products utilizing same” (priority 2015, dated 2024)

Key:
Test in all cases: whole plant or invertebrate
[1] = system: Aedes aegypti (Yellow fever mosquito); details: Aedes aegypti
Protocol: […] Once the deposits were dry, five non-blood fed adult female Aedes aegypti (between two to five days old) were added to each well, and sustained with a 10% sucrose solution in a cotton wool plug. Assessment of the knockdown after 1 hour, and mortality after 48 hours was carried out.
In case of multiple tests, the mean value is reported.

Aedes aegypti = details: Aedes aegypti, 48 h
Summary of the method: (§1)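 Non-blood-fed adult females (2–5 days old), ten per well, were placed on dried ethanol deposits of the test compound at a defined concentration and fed 10% sucrose. Mortality was scored at 48 hours as the mean of two replicates.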

Anopheles stephensi = details: Anopheles stephensi, 48 h
Summary of the method: as §1

With CO/C=C(/C(=O)OC)c1ccccc1Oc1nc(C(C)(C)C)ns1 [Compound 7, Methyl (E)-2-[2-[(3-tert-butyl-1,2,4-thiadiazol-5-yl)oxy]phenyl]-3-methoxy-prop-2-enoate] the pest or weed control at 20 ppm ([1]; 1 h, read-out: Knockdown) was 100%, the mortality at 20 ppm ([1]; 48 h) was 100% and the mortality at 5 ppm (Aedes aegypti) was 78%. It also gave a mortality at 5 ppm (Anopheles stephensi) of 95%.
